We go through 45 compounds from ChEMBL document CHEMBL3301464, “MMV Malaria Box anti-babesial screening”.

Test [1] in a line: (§1) MMV: Anti-babesial activity assay. Parasite pRBCs at 1% parasitemia were cultivated in 100 ul with 96-well plates at 2.5% and 5% hematocrits. The parasites were cultivated in triplicate for 4 days without replacement of the medium for each concentration of the compound. The class given is functional, Babesia bovis.
A short description of test [2]: as §1. The class given is functional, Babesia bigemina.
Test [3] can be described thus: as §1. Format: functional, Babesia equi.
Test [4] is described as follows: as §1. The class given is functional, Babesia caballi.

In general, IC50 refers to the point on the concentration scale where inhibition reaches its midpoint. Higher therefore signals a need for much substance. As for `OC(CNCc1ccccc1)Cn1c2ccccc2c2ccccc21` (stereo not given), the IC50 stood at 3.25 µM in test [1], 18 µM in test [2], 4.19 µM in test [3] and 3.9 µM in test [4].
Turning to `CC(C)(C)C(=O)Nc1ccc(C(=O)Nc2cccc(-c3nc4ccccc4[nH]3)c2)cc1`, the IC50 is 0.32 µM in test [1], 0.08 µM in test [2], 5.19 µM in test [3] and 2.19 µM in test [4].
In the case of `CCCCCC(=O)N1c2ccccc2N=C2CC(c3ccc(OC)c(OC)c3)CC(O)=C2C1c1ccc(C(F)(F)F)cc1` (stereo not given), the concentration for half-maximal inhibition (IC50) in test [1] is over 25 µM; in test [2], 16.2 µM; in test [3], 21.9 µM; in test [4], 14.2 µM.
In the same order, the values of `CCOc1cccc(C(=O)Nc2ccc(-c3nc4ccccc4[nH]3)cc2)c1` are 17.2 µM, 5.64 µM, 10 µM and 0.075 µM.
In the same order, the values of `COc1ccc(C(=O)Nc2nonc2-c2ccc(OC)c(OC)c2)cc1Cl` are over 25 µM, 19.3 µM, 20.4 µM and 15.9 µM.
For `Cc1ccc(C)c(-c2csc(Nc3ccc(C)c(C)c3)n2)c1`, in that order: 0.06 µM, 8.05 µM, 0.14 µM and 0.71 µM.
With `CCCN(CCC)CCCNC(=O)c1cc2c(-c3ccc(OC)c(OC)c3)nn(C)c2s1`, the IC50 in test [1] was found to be 11 µM; in test [2], 3.32 µM; in test [3], 19.4 µM; in test [4], 5.5 µM.
For `CC1CC2=C(CC1CNCCCN(C)C)C(C)(C)CCC2` (stereo not given), in that order: 0.58 µM, 2.12 µM, 0.13 µM and 5.9 µM.
In the same order, the values of `O=C(NCC(c1ccsc1)N1CCCCCC1)c1ccc(C(F)(F)F)cc1` (stereo not given) are 18.2 µM, 13.6 µM, 18.1 µM and 10 µM.
In the same order, the values of `COc1ccc(CCN2CCC(CN(C)Cc3cnn(-c4ccccc4)c3)CC2)cc1` are 0.87 µM, 4.29 µM, 0.62 µM and 2.45 µM.
For the compound `CC1CC(C)CN(C(=O)c2ccc(Cl)cc2Cl)C1` (stereo not given), the IC50 stood at 6.8 µM in test [1], 14.7 µM in test [2], 19.4 µM in test [3] and 3.9 µM in test [4].
In the same order, the values of `COc1cc(-c2nc(-c3ccc(Sc4ccccc4)cc3)c(-c3ccccc3)[nH]2)cc(OC)c1O` are 7.54 µM, 16.5 µM, 12 µM and 3.45 µM.
In the same order, the values of `CCOc1cc2c(cc1OCC)C(c1cc(Cl)c(O)c(OCC)c1)NCC2` (stereo not given) are 24 µM, over 25 µM, 12.3 µM and 13.4 µM.
Consider `COc1nc(Nc2ccc(C(C)C)cc2)nc(OC)n1`, for which the concentration for half-maximal inhibition (IC50) in test [1] turned out to be 1.03 µM; in test [2], 10.1 µM; in test [3], 12.3 µM; in test [4] it was 0.076 µM.
With `COc1ccc(C2=C(c3ccc(OC)cc3)C3(c4ccccc4)C(=O)C2(c2ccccc2)C2C(=O)N(c4ccc(C)cc4)C(=O)C23)cc1` (stereo not given), the 50% inhibitory concentration (IC50) in test [1] came out at 15.4 µM; in test [2] it was 14.1 µM; in test [3] it was 14.2 µM; in test [4] it was 14.7 µM.
Regarding `CN1CCN(c2ncnc3c2[nH]c2ccc(Cl)cc23)CC1`, the IC50 in test [1] amounted to 10 µM; in test [2], 8.54 µM; in test [3] it was 8.25 µM; in test [4] it was 6.4 µM.
For `COc1cc(CNCCc2ccc(Cl)cc2)cc(OC)c1O`, the IC50 in test [1] is 10 µM; in test [2], 5.81 µM; in test [3] it was 12.6 µM; in test [4], 6.85 µM.
With `CCN1CCN(c2c(C(=O)c3ccccc3)cnc3cc(OC)c(OC)cc23)CC1`, the half-maximal inhibitory concentration (IC50) is 0.86 µM in test [1], 1.21 µM in test [2], 13 µM in test [3] and 15.9 µM in test [4].
On to `O=C(NC1CCN(Cc2ccccc2)CC1)c1cc2nc(-c3ccc(Cl)s3)cc(C(F)(F)F)n2n1`, for which the half-maximal inhibitory concentration (IC50) in test [1] was found to be 1.42 µM; in test [2], 0.065 µM; in test [3], 13.9 µM; in test [4], 4.13 µM.
`O=C1CC(O)(C(F)(F)C(F)(F)F)Oc2ccccc21` (stereo not given): the concentration for half-maximal inhibition (IC50) in test [1] is over 25 µM; in test [2], 16.3 µM; in test [3] it was 0.65 µM; in test [4] it was 0.8 µM.
As for `CCOC(=O)c1cnc2ccc(OC)cc2c1NCc1ccccc1`, the half-inhibitory concentration (IC50) in test [1] amounted to 0.72 µM; in test [2], 1 µM; in test [3], 14.1 µM; in test [4], 5.9 µM.
Regarding `CC1CCN(Cc2c(O)ccc3cc(-c4nc5ccccc5s4)c(=O)oc23)CC1`, the concentration for half-maximal inhibition (IC50) in test [1] turned out to be 6.9 µM; in test [2] it was 5.5 µM; in test [3] it was 4.27 µM; in test [4] it was 3.73 µM.
In the same order, the values of `COc1ccc(C2Sc3ccccc3N=C3C2=C(O)c2ccccc23)cc1` (stereo not given) are 13.9 µM, 4.09 µM, 15.8 µM and 7.09 µM.
For the compound `CCOc1ccccc1CNC(=O)C1c2ccccc2C(=O)N(CC(C)C)C1c1cccs1` (stereo not given), the IC50 stood at 0.83 µM in test [1], 0.1 µM in test [2], 12.4 µM in test [3] and 14.3 µM in test [4].
For `COc1ccc(C(=O)NC(c2ccc(Cl)cc2Cl)c2cc(Cl)c3cccnc3c2O)cc1` (stereo not given), in that order: 0.86 µM, 3.05 µM, 1.39 µM and 4.68 µM.
In the same order, the values of `O=C1c2ccc3c4c(ccc(c24)C(=O)N1CCCCO)C(=O)N(CCCCO)C3=O` are 0.6 µM, 3.34 µM, 0.67 µM and 0.53 µM.
Regarding `Cc1cccc(N2C(=O)C3C(C2=O)C2(c4ccccc4)C(=O)C3(c3ccccc3)C(c3ccc4c(c3)OCO4)=C2c2ccc3c(c2)OCO3)c1` (stereo not given), the IC50 was determined as 17 µM in test [1], 25 µM in test [2], 13.9 µM in test [3] and 5.5 µM in test [4].
Take `COc1ccc(CNC(=O)c2cc3c(=O)n4ccccc4nc3n(CCc3ccccc3)c2=N)cc1`: the IC50 worked out at 0.1 µM in test [1], 4.27 µM in test [2], 4.74 µM in test [3] and 0.686 µM in test [4].
In the same order, the values of `O=C1c2ccccc2-c2nnc(-c3ccc(Br)cc3)cc21` are 0.86 µM, 0.77 µM, 10.1 µM and 18.1 µM.
In the case of `CCN(CC)CCn1c(=N)n(CC(O)c2ccc(Cl)c(Cl)c2)c2ccccc21` (stereo not given), the 50% inhibitory concentration (IC50) was 10.1 µM in test [1], 17.2 µM in test [2], 3.91 µM in test [3] and 5.62 µM in test [4].
For `COc1ccc(C(=O)Nc2ccc3nc(N4CCCCC4)cc(C)c3c2)cc1OC`, in that order: 14.3 µM, 0.46 µM, 6.99 µM and 0.51 µM.
As to `c1ccc2c(NCCCCCCNc3c4c(nc5ccccc35)CCCC4)c3c(nc2c1)CCCC3`, the IC50 is 0.99 µM in test [1], 2.17 µM in test [2], 0.5 µM in test [3] and 6.31 µM in test [4].
In the same order, the values of `COc1ccc2nc(C)cc(Nc3ccc(Cl)cc3)c2c1` are 2.4 µM, 8.15 µM, 4.29 µM and over 25 µM.
In the case of `COc1ccc(NC(=O)C2c3ccccc3C(=O)N(CC(C)C)C2c2cccs2)cc1Cl` (stereo not given), the IC50 in test [1] stood at 3.15 µM; in test [2], 2.52 µM; in test [3], 6.87 µM; in test [4], 4.69 µM.
With `COc1ccc(Nc2nc(NCc3ccccc3)c3ccccc3n2)cc1`, the IC50 in test [1] was determined as 0.06 µM; in test [2], 2.16 µM; in test [3], 4.77 µM; in test [4] it was 3.7 µM.
In the same order, the values of `FC(F)(F)c1cccc(Nc2nc3ccccc3nc2Nc2cccc(C(F)(F)F)c2)c1` are 0.14 µM, 3.45 µM, 4.13 µM and 4.27 µM.
In the same order, the values of `CC1CCCCN1CCCNC(=O)c1ccc2c(c1)sc1nc(-c3ccc(F)cc3)cn12` (stereo not given) are 0.19 µM, 3.9 µM, 0.1 µM and 8.54 µM.
For `COc1ccc(C(C)=O)cc1N1C(=O)C2C(C1=O)C1(c3ccccc3)C(=O)C2(c2ccccc2)C(c2ccc(C)cc2)=C1c1ccc(C)cc1` (stereo not given), in that order: 17.5 µM, 15.5 µM, 16.9 µM and 8.46 µM.
For the compound `COc1ccc2c(c1OC)C(=O)N1c3ccccc3N=C(c3ccc(C)cc3)CC21` (stereo not given), the IC50 was found to be 13 µM in test [1], 16.1 µM in test [2], 14.6 µM in test [3] and 17.1 µM in test [4].
For `CC(C)(C)CC(C)(C)NCC(O)COc1ccc2c(c1)CCC2` (stereo not given), in that order: 10 µM, 0.6 µM, 2.45 µM and 6.81 µM.
On to `COc1ccc(C=C2SC(Nc3ccc(F)cc3)=NC2=O)c(OC)c1`, for which the IC50 in test [1] came out at 0.1 µM; in test [2], 0.082 µM; in test [3], 4.61 µM; in test [4], 0.836 µM.
For `Oc1ccc(Br)cc1CN1CCN(Cc2ccc(Cl)cc2)CC1`, the IC50 in test [1] amounted to 8.61 µM; in test [2], 25 µM; in test [3], 2.95 µM; in test [4], 3.86 µM.
In the same order, the values of `O=C(Nc1ccc(-c2nc3cc(NC(=O)c4ccc(Cl)cc4)ccc3[nH]2)cc1)c1ccc(Cl)cc1` are 17 µM, 5.09 µM, 13.3 µM and 9.1 µM.
In the same order, the values of `OCCNc1nc(Nc2ccc(Cl)c(Cl)c2)nc2ccccc12` are 0.52 µM, 3.34 µM, 1.39 µM and 0.1 µM.
For `Cc1cc(N(C)C)nc(Nc2ccc(NC(=O)Nc3ccccc3)cc2)n1`, in that order: 0.078 µM, 0.06 µM, 12.1 µM and 14.6 µM.
